Test results published in US11279733B2, “Peptide antibiotics” (priority 2017, dated 2022).
Converted amounts (≈) assume the structure as drawn. Read-outs that look alike come from different tables or passages of the source. Positions of bridges follow the written chain, without caps; N, C: chain ends. Non-standard residues stand in square brackets, D forms with d. Residues, ends and D or L forms follow the SMILES beside them. *: point of attachment. Decanoyl(3R-OH) = CCCCCCC[C@@H](O)CC(=O)*; dDab = NCC[C@@H](N)C(=O)O; Dab = NCC[C@H](N)C(=O)O

Key:
[1] = In vitro nephrotoxicity, LDH release from primary human kidney cells; type: cell-based; conditions: pH 7.4
Text: (§1) hPT cells were derived from whole human kidneys procured by the International Institute for the Advancement of Medicine (Edison, N.J., USA). All tissue was scored by a pathologist as normal (i.e., derived from non-cancerous, non-diseased tissue). Cell isolation procedures were based on those originally described by Todd et al. (1996) and modified (Cummings and Lash, 2000; Cummings et al., 2000) with use of sterile conditions (i.e., all instruments and glassware were autoclaved and all buffers were filtered through a 0.2-μm pore-size filter). Renal cortex and outer stripe were cut into slices, washed with sterile PBS, minced, and the pieces were placed in a trypsinization flask filled with 300 ml of sterile, filtered Hanks' buffer, containing 25 mM NaHCO3, 25 mM HEPES, pH 7.4, 0.5 mM EGTA, 0.2% (w/v) bovine serum albumin, 50 μg/ml gentamicin, 1.3 mg/mL collagenase, and 0.59 mg/ml CaCl2), which was filtered prior to use. Whole kidneys were perfused with Wisconsin medium and kept on ice until they arrived at the laboratory, which was usually within 24 h of removal from the donor.
(§2) All buffers were continuously bubbled with 95% O2/5% CO2 and were maintained at 37° C. Minced cortical pieces from whole kidneys were subjected to collagenase digestion for 60 min, after which the supernatant was filtered through a 70-μm mesh filter to remove tissue fragments, centrifuged at 150×g for 7 min, and the pellet resuspended in Dulbecco's Modified Eagle's Medium: Ham's F12 Medium (DMEM/F12; 1/1). Approximately 5 to 7×10^6 cells were obtained per 1 g of human kidney cortical tissue.
(§3) hPT cells were resuspended in 2 mL of DMEM/F12 and diluted to 500 mL with cell culture medium, which was serum-free and hormonally-defined. Composition of this supplemented medium was based on earlier work establishing optimal conditions for primary culture of rat PT cells (Lash et al., 1995). Basal medium was a 1:1 mixture of DMEM/F12. […] Cells were seeded in a volume of 0.5 ml at a density of 50-100 μg protein per cm^2 (0.5-1.0×10^6 cells/ml) on 24-well plates. Cultures were grown at 37° C. in a humidified incubator under an atmosphere of 95% air/5% CO2 at pH 7.4. Cultures were grown to approximately 80%-90% confluence (generally 5-6 days) prior to experiments. Cells were harvested by either scraping the flasks with a Teflon scraper or by brief incubation with Cellstripper (Cellgro, Herndon, Va., USA) (in Ca^2+- and Mg^2+-free Hanks' buffer).

[2] = In vitro nephrotoxicity, GGT release from primary human kidney cells; type: cell-based; conditions: pH 7.4
Text: as §1, §2, §3
Release of gamm-glutanyltransferase was assessed according to Orlowski, M., Meister, A. 1963. γ-Glutamyl-p-nitroanilide: A new convenient substrate for determination and study of L- and D-γ-glutamyltranspeptidase activities (Biochim. Biophys. Acta 73: 679-681.)
A 2.5 mM substrate Solution was prepared from 67 mg γ-glutamyl-p-nitroanilide+264 mg glycylglycine in 100 mL of 0.05 M Tris, pH 8.2 (50 mM Tris, pH 8.2: 605 mg Tris/HCl per 100 mL).
For the assay in 96-well plates, 6-μL of sample and 0.3 mL substrate solution were added to each well. The absorbance was measured at 410 nm for the appearance of product, p-nitroanilide (molar extinction=8800 M^−1 cm^−1).

[3] = system: K. pneumoniae ATCC BAA-2146, NDM-1 pos; conditions: ATCC BAA-2146
Procedure, shortened: (§4)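 Mid-log cultures grown in Mueller Hinton broth at 37° C were tested by 2-fold broth microdilution at 5×10^5 CFU/mL final. Compounds were dissolved in water and tested over a final range of 32 to 0.015 μg/mL.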

[4] = system: S. aureus ATCC 25923, MSSA; conditions: ATCC 25923
Procedure, shortened: as §4

[5] = system: K. pneumoniae GN_106, PmxR; conditions: GN 106, PmxR
Procedure, shortened: as §4

[6] = system: P. aeruginosa GN_105, PmxR; conditions: GN 105, PmxR
Procedure, shortened: as §4

A. baumannii ATCC 19606 = conditions: ATCC 19606
Procedure, shortened: as §4

K. pneumoniae ATCC 13883 = conditions: ATCC 13883
Procedure, shortened: as §4

P. aeruginosa ATCC 27853 = conditions: ATCC 27853
Procedure, shortened: as §4

A. baumannii GN_093 PmxR = conditions: GN 093 PmxR
Procedure, shortened: as §4

[7] = system: K. pneumoniae ATCC 700603, MDR; conditions: ATCC 700603
Procedure, shortened: as §4

[8] = system: K. pneumoniae GN_102 PmxR; conditions: GN 102 PmxR
Procedure, shortened: as §4

[9] = system: P. aeruginosa GN_043, PmxR; conditions: polymyxin-resistant
Procedure, shortened: as §4

E. coli ATCC 25922 = conditions: ATCC 25922
Procedure, shortened: as §4

Neisseria gonorrhoeae = experiment: MIC determination, Neisseria gonorrhoeae; type: cell-based; conditions: strain FA19 ATCC BAA-1838
Experimental: Bacteria were either obtained from American Type Culture Collection (ATCC; Manassas, Va., USA) or independent academic clinical isolate collections, as listed in Table 18 below. Bacteria were cultured in Nutrient broth (NB; Bacto Laboratories, catalogue No. 234000) or Mueller Hinton broth (MHB; Bacto Laboratories, catalogue No. 211443) at 37° C. overnight with shaking (˜180 RPM). A sample of each culture was then diluted 50-fold in fresh MHB and incubated at 37° C. for 2-3 h with shaking (˜180 RPM). Compound stock solutions were prepared as 0.64 mg/mL or 2.56 mg/mL in water. The compounds, at twice the final desired concentration, were serially diluted 2-fold across the wells of 96-well plates (Polystyrene, Corning, catalogue No. 3370). Mid-log phase bacterial cultures (after 2-3 h incubation) were diluted to a final concentration of 1×10^6 colony forming units (CFU)/mL, and 50 μL was added to each well giving a final cell density of 5×10^5 and a compound concentration range of 32 μg/mL to 0.015 μg/mL (128-0.06 μg/mL against P. aeruginosa PA9704).

Structure (SMILES) | CC50 [1] | CC50 [2] | MIC, K. pneumoniae ATCC BAA-2146, NDM-1 pos [3] | MIC, A. baumannii ATCC 19606 (A. baumannii ATCC 19606) | MIC, K. pneumoniae ATCC 13883 (K. pneumoniae ATCC 13883) | MIC, P. aeruginosa ATCC 27853 (P. aeruginosa ATCC 27853) | MIC, K. pneumoniae ATCC 700603, MDR [7] | MIC, E. coli ATCC 25922 (E. coli ATCC 25922) | MIC K. pneumoniae GN_106, PmxR [5] | MIC A. baumannii GN_093 PmxR (A. baumannii GN_093 PmxR) | MIC K. pneumoniae GN_102 PmxR [8] | further results
CCCCCCC[C@@H](O)CC(=O)N[C@H](CCN)C(=O)N[C@H]1CCNC(=O)[C@H](CC(C)C)NC(=O)[C@H](CCN)NC(=O)[C@H](CCNC(=O)[C@@H](N)CCCNC(=N)N)NC(=O)[C@H](CC(C)C)NC(=O)[C@@H](Cc2ccccc2)NC(=O)[C@H](CCN)NC1=O [compound 6654, 3(R)OH-nC9CO-D-Dab-cyc[L-Dab-L-Dab-D-Phe-L-Leu-L-Dab(L-Arg)-L-Dab-L-Leu]] ({Decanoyl(3R-OH)}-[dDab][Dab][Dab][dF]L[Dab](Arg)[Dab]L; lactam 2-C) | > 128 µg/mL | > 128 µg/mL | 8 µg/mL (≈ 6.66 µM) | 8 µg/mL (≈ 6.66 µM) | 4 µg/mL (≈ 3.33 µM) | 4 µg/mL (≈ 3.33 µM) | 4 µg/mL (≈ 3.33 µM) | 4 µg/mL (≈ 3.33 µM) |  |  |  | MIC, S. Aureus ATCC 25923, MSSA [4]: 16 µg/mL (≈ 13.3 µM); MIC, K. pneumoniae Cl 138-16347-20362, PmxR [5]: 16 µg/mL (≈ 13.3 µM); MIC, P. aeruginosa PA9704, PmxR [6]: 2 µg/mL (≈ 1.67 µM); MIC, A. baumannii Cl Ptyela 10073 4512:2, PmxR (A. baumannii GN_093 PmxR): 8 µg/mL (≈ 6.66 µM); MIC, K. pneumoniae Cl Koprana 10065 0661:1, PmxR [8]: 8 µg/mL (≈ 6.66 µM); MIC, P. aeruginosa FADDI-PA070, PmxR ([9]; Table 5): 2 µg/mL (≈ 1.67 µM)
CCCCCCC[C@@H](O)CC(=O)N[C@@H](CCN)C(=O)N[C@H]1CCNC(=O)[C@H](CC(C)C)NC(=O)[C@H](CCN)NC(=O)[C@H](CCN)NC(=O)[C@H](CC(C)C)NC(=O)[C@@H](Cc2ccccc2)NC(=O)[C@H](CCN)NC1=O [compound 8638, 3(R)OH-nC9CO-L-Dab-cyc[L-Dab-L-DAB-D-Phe-L-Leu-L-Dab-L-Dab-L-Leu]] ({Decanoyl(3R-OH)}-[Dab][Dab][Dab][dF]L[Dab][Dab]L; lactam 2-C) | > 128 µg/mL | > 128 µg/mL | 8 µg/mL (≈ 7.66 µM) | 32 µg/mL (≈ 30.6 µM) | 4 µg/mL (≈ 3.83 µM) | 1 µg/mL (≈ 0.958 µM) | 8 µg/mL (≈ 7.66 µM) | 2 µg/mL (≈ 1.92 µM) | 4 µg/mL (≈ 3.83 µM) | 32 µg/mL (≈ 30.6 µM) | 4 µg/mL (≈ 3.83 µM) | MIC, S. aureus ATCC 25923, MSSA [4]: 16 µg/mL (≈ 15.3 µM); MIC P. aeruginosa GN_105, PmxR [6]: 2 µg/mL (≈ 1.92 µM); MIC P. aeruginosa GN_043, PmxR ([9]; Table 6): 8 µg/mL (≈ 7.66 µM)
CCCCCCC[C@@H](O)CC(=O)N[C@H](CCN)C(=O)N[C@H]1CCNC(=O)[C@H](CC(C)C)NC(=O)[C@H](CCCNC(=N)N)NC(=O)[C@H](CCN)NC(=O)[C@H](CC(C)C)NC(=O)[C@@H](Cc2ccccc2)NC(=O)[C@H](CCN)NC1=O [compound 8643, 3(R)OH-nC9CO-D-Dab-cyc[L-Dab-L-DAB-D-Phe-L-Leu-L-Dab-L-Arg-L-Leu]] ({Decanoyl(3R-OH)}-[dDab][Dab][Dab][dF]L[Dab]RL; lactam 2-C) | > 128 µg/mL | > 128 µg/mL |  |  |  |  |  |  | 2 µg/mL (≈ 1.82 µM) | 16 µg/mL (≈ 14.5 µM) | 2 µg/mL (≈ 1.82 µM) | MIC N. gonorrhoeae FA19 ATCC BAA-1838 (Neisseria gonorrhoeae): 1.56 µg/mL (≈ 1.42 µM); MIC K. pneumoniae ATCC BAA-2146, NDM-1 pos [3]: 2 µg/mL (≈ 1.82 µM); MIC S. aureus ATCC 25923, MSSA [4]: 16 µg/mL (≈ 14.5 µM); MIC A. baumannii ATCC 19606 (A. baumannii ATCC 19606): 4 µg/mL (≈ 3.63 µM); MIC K. pneumoniae ATCC 13883 (K. pneumoniae ATCC 13883): 2 µg/mL (≈ 1.82 µM); MIC P. aeruginosa ATCC 27853 (P. aeruginosa ATCC 27853): 2 µg/mL (≈ 1.82 µM); MIC K. pneumoniae ATCC 700603, MDR [7]: 2 µg/mL (≈ 1.82 µM); MIC P. aeruginosa GN_043, PmxR [9]: 2 µg/mL (≈ 1.82 µM); MIC E. coli ATCC 25922 (E. coli ATCC 25922): 1 µg/mL (≈ 0.909 µM)
